The structures appear in SMILES notation. pKi: −log10 of the molar value.

This is an account of results in US6506772B1, “Substituted [1,2,4]triazolo[1,5a]pyridine derivatives with activity as adenosine receptor ligands” (Hoffmann-La Roche Inc., priority 2000, dated 2003).

Assay [1] deals with T1, human adenosine A2A receptor (Homo sapiens, UniProt P29274).
T1 construct: expressed in transfected cells; host or cells: CHO cells, Semliki Forest virus expression system; membrane preparation
As to the kind of experiment: Human adenosine A2A receptor [3H]-SCH-58261 binding assay. The following applies: for pKi: affinity to human adenosine A2A receptor, read-out: Ki HA2A; for selectivity (A1/A2a): calculated ratio of the affinity to the HA1 receptor to the HA2a receptor.

The target in assay [2] is T2, HA1 adenosine receptor (Homo sapiens, UniProt P30542).
T2 sequence (P30542 1-326): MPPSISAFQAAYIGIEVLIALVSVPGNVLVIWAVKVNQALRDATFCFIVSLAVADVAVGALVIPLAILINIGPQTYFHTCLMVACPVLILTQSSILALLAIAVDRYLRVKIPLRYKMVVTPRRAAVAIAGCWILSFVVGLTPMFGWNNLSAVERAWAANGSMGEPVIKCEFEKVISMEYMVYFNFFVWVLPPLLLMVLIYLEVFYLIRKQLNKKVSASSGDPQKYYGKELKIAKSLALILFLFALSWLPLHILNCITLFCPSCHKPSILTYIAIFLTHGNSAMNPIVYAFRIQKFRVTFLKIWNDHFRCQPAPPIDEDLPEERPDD
As to the kind of experiment: Human adenosine A1 receptor affinity (Ki hA1). It counts as binding. The note with it: affinity to human adenosine A1 receptor.

T1 sequence (P29274 whole entry): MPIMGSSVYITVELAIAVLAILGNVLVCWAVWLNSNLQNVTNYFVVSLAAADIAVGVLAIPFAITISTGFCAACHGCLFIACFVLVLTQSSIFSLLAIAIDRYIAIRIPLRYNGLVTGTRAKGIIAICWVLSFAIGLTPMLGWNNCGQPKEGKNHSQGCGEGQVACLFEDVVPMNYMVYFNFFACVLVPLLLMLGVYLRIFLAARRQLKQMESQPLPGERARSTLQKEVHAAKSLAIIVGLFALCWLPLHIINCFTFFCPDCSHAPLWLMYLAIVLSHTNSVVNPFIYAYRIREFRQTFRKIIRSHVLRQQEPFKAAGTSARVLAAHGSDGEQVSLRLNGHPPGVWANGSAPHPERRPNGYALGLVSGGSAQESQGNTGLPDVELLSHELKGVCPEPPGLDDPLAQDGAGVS

A word on the pKi: it is −log10 of the Ki, conventionally taken in molar units. As to `CCN(C(=O)c1cc(N)n2nc(-c3ccc(Br)o3)nc2c1)C1CCCCC1` [Example 345, 5-Amino-2-(5-bromo-furan-2-yl)-[1,2,4]triazolo[1,5-a]pyridine-7-carboxylic acid cyclohexyl-ethyl-amide], in assay [1], the pKi was 8.70 and the “selectivity (A1/A2a)” value is 31.1. This compound also showed a pKi in assay [2] of 7.21.

Take `CC(C)CN(CC(C)C)C(=O)c1cc(N)n2nc(-c3ccc(Br)o3)nc2c1` [Example 346, 5-Amino-2-(5-bromo-furan-2-yl)-[1,2,4]triazolo[1,5-a]pyridine-7-carboxylic acid diisobutylamide]: in assay [1], the pKi is 8.62 and the “selectivity (A1/A2a)” value is 42.7. The compound also gave a pKi in assay [2] of 6.99.

As to `Nc1cc(C(=O)N2CCc3ccccc3C2)cc2nc(-c3ccc(Br)o3)nn12` [Example 347, [5-Amino-2-(5-bromo-furan-2-yl)-[1,2,4]triazolo[1,5-a]pyridin-7-yl]-(3,4-dihydro-1H-isoquinolin-2-yl)-methanone], in assay [1], the pKi is 7.88 and the “selectivity (A1/A2a)” value is given as 17.7. This compound also showed a pKi in assay [2] of 6.63.

In the case of `C=CCN(C(=O)c1cc(N)n2nc(-c3ccc(Br)o3)nc2c1)C1CCCCC1` [Example 348, 5-Amino-2-(5-bromo-furan-2-yl)-[1,2,4]triazolo[1,5-a]pyridine-7-carboxylic acid allyl-cyclohexyl-amide], in assay [1], the pKi is 8.59 and the “selectivity (A1/A2a)” value was 25.8. In assay [2], the pKi is 7.17.

With `Nc1cc(C(=O)N2CCCC3CCCCC32)cc2nc(-c3ccc(Br)o3)nn12` (stereo not drawn) [Example 349, [5-Amino-2-(5-bromo-furan-2-yl)-[1,2,4]triazolo[1,5-a]pyridin-7-yl]-(octoahydro-quinolin-1-yl)-methanone], in assay [1], the negative logarithm of the Ki (pKi) is 8.54 and the “selectivity (A1/A2a)” value is recorded as 22.3. In assay [2], this compound gave a pKi of 7.19.

As for `Nc1cc(C(=O)N2CCC3CCCCC3C2)cc2nc(-c3ccc(Br)o3)nn12` (stereo not drawn) [Example 350], in assay [1], the pKi is 8.24 and the “selectivity (A1/A2a)” value was 28.8. In addition, the pKi in assay [2] is 6.78.

As to `CC(C)N(C(=O)c1cc(N)n2nc(-c3ccc(Br)o3)nc2c1)C1CCCCC1` [Example 351, 5-Amino-2-(5-bromo-furan-2-yl)-[1,2,4]triazolo[1,5-a]pyridine-7-carboxylic acid cyclohexyl-isopropyl-amide], in assay [1], the pKi was 8.54 and the “selectivity (A1/A2a)” value is reported as 26.7. In assay [2], this compound showed a pKi of 7.11.

Consider `Nc1cc(C(=O)N2CCN(c3ccccc3)CC2)cc2nc(-c3ccc(Br)o3)nn12` [Example 353, [5-Amino-2-(5-bromo-furan-2-yl)-[1,2,4]triazolo[1,5-a]pyridin-7-yl]-(4-phenyl-piperazin-1-yl)-methanone], for which the pKi is 7.09 in assay [1] and 5.98 in assay [2]. Also, in assay [1], the “selectivity (A1/A2a)” value was 12.7.

Consider `Nc1cc(C(=O)N2CCCCC2c2cccnc2)cc2nc(-c3ccc(Br)o3)nn12` (stereo not drawn) [Example 354, [5-Amino-2-(5-bromo-furan-2-yl)-[1,2,4]triazolo[1,5-a]pyridin-7-yl]-(3,4,5,6-tetrahydro-2H-[2,3′]bipyridinyl-1-yl)-methanone], for which, in assay [1], the pKi is 8.54 and the “selectivity (A1/A2a)” value was 15.7. For the same compound, in assay [2], the pKi is 7.34.

In the case of `Nc1cc(C(=O)N2CCc3c([nH]c4ccccc34)C2)cc2nc(-c3ccc(Br)o3)nn12` [Example 355, [5-Amino-2-(5-bromo-furan-2-yl)-[1,2,4]triazolo[1,5-a]pyridin-7-yl]-(1,3,4,9-tetrahydro-b-carbolin-2-yl)-methanone], the pKi in assay [1] is 7.33; in assay [2] it was 6.54. Moreover, in assay [1], the “selectivity (A1/A2a)” value was 6.1.

With `C[C@@H]1CCC[C@H](C)N1C(=O)c1cc(N)n2nc(-c3nccs3)nc2c1` [Example 358, (5-Amino-2-thiazol-2-yl-[1,2,4]triazolo[1,5-a]pyridin-7-yl)-(cis-2,6-dimethyl-piperidin-1-yl)-methanone], in assay [1], the pKi was 7.13 and the “selectivity (A1/A2a)” value is on record as 23.0. Besides, in assay [2], the pKi was 5.76.
